# Entries after “also recorded” stand apart in the source; their conditions may differ.
# System: patients with moderate-to-severe Keratoconjunctivitis Sicca (KCS)
# Test: Phase 2 randomized, double-masked, placebo-controlled clinical study of oral IB-MECA; IOP measured at baseline and week 12
# Type: in vivo, human
# Method: A clinical study was conducted in patients with dry eye symptoms. The patients received an oral administration of IB-MECA at a dose of 1 mg or placebo, twice daily.
# This study was a Phase 2, randomized, double-masked, placebo-controlled, parallel-group study in adult males and females, aged 18 years and over, with a diagnosis of moderate-to-severe Keratoconjunctivitis Sicca (KCS). Patients were randomized to receive either IB-MECA 1 mg or matching placebo, given orally, twice daily, for 12 weeks. A Screening Period of up to 4 weeks that includes a 2-week run-in period preceded a 12-week treatment period, followed by a 2-week follow-up period.
# Some patients received either the IB-MECA capsules or a matching placebo and others received the IB-MECA tablets or a matching placebo.
# Eligible patients to be included in the study were adult males or females, aged 18 years and over, with a diagnosis of moderate-to-severe KCS as defined by: • (1) at least 1 of the following ocular symptoms scored at ≧2, where 0=none and 4=very severe/interferes with normal activities: photophobia, blurred vision, foreign body sensation, soreness or pain, itching, burning, dryness; AND • (2) ST (without anesthesia)<7 mm/5 min in either eye; AND • (3) Positive FS, defined as a corneal punctuate fluorescein staining score of ≧1 in either eye, where 0=none and 3=severe. Use of topical ocular treatments was banned during the course of the study other than unreserved artificial tears (REFRESH) up to 8 times/day for the duration of the trial. Also banned was periocular cosmetic application. (c) Patients' Exclusion Criteria
# Patients were excluded from the study if they had Sjögren's Syndrome with significant systemic non-exocrine gland involvement, Stevens-Johnson Syndrome, post-burn ocular injury, or chronic ocular disease other than KCS requiring topical treatment. Excluded were also patients being administered topical cyclosporine eye drops or systemic cyclosporine within 3 months prior to the Screening Visit; disease-modifying drugs, including methotrexate and biological agents, whose dose has been changed within 3 months prior to the Screening Visit or was expected to change during the trial; oral corticosteroids>10 mg prednisone, or equivalent, per day; or topical steroids within 2 weeks prior to the Screening Visit and for the duration of the study. […]
# [1] = baseline to week 12, 1 mg orally twice daily, N=35
structure (smiles),measurement,setting,value
"CNC(=O)[C@H]1O[C@@H](n2cnc3c(NCc4cccc(I)c4)ncnc32)[C@H](O)[C@@H]1O [IB-MECA, N^6-(3-iodobenzyl)-adenosine-5′-N-methyluronamide]","IOP % change, Mean",[1],−6.07%
same,"IOP change, Mean",[1],−1.14
same,decrease in IOP (% change),"baseline to week 12, versus 1.95% in the placebo group, p<0.05",6.07%
same,"IOP week 12, Mean","end of 12 weeks treatment, 1 mg orally twice daily, N=35",13.00
same,effect on IOP (in words),"human subjects, oral 1 mg twice daily, tested subjects in general and patients with elevated IOP in particular",decreasing IOP; also recorded: lowering of intraocular pressure; also recorded: much more pronounce decrease in IOP than the placebo group
same,effect on dry eye symptoms (in words),"patients with dry eye symptoms, oral 1 mg twice daily",amelioration of some of the dry eye symptoms
same,"IOP at baseline, Mean","prior to first treatment, KCS patients, capsules and tablets pooled, N=35",14.14
